Data from ChEMBL document CHEMBL3868595, “Plazomicin is effective in a non-human primate pneumonic plague model” (Bioorg Med Chem, 2016).

Key:
Yersinia pestis [1] = assay: Antibacterial activity against Yersinia pestis Colorado 92 infected in African green monkey B6106 model assessed as bacterial burden in spleen at 25 mg/kg, iv administered within 6 hrs post onset of sustained fever as 30 mins infusion for 5 days (reference value: 1.6 10^9CFU/g); format: functional, CO92
Yersinia pestis [2] = assay: Antibacterial activity against Yersinia pestis Colorado 92 infected in African green monkey B6889 model assessed as bacterial burden in lung at 6.25 mg/kg, iv administered within 6 hrs post onset of sustained fever as 30 mins infusion for 5 days (reference value: 7.7 10^8CFU/g); format: functional, CO92
Yersinia pestis [3] = assay: Antibacterial activity against Yersinia pestis Colorado 92 infected in African green monkey 8047 model assessed as bacterial burden in spleen at 6.25 mg/kg, iv administered within 6 hrs post onset of sustained fever as 30 mins infusion for 10 days (reference value: 1.6 10^9CFU/g); format: functional, CO92
Yersinia pestis [4] = assay: Antibacterial activity against Yersinia pestis Colorado 92 infected in African green monkey assessed as survival of monkey at 12.5 mg/kg, iv administered within 6 hrs post onset of sustained fever as 30 mins infusion for 5 days; format: functional; conditions: CO92, iv
Yersinia pestis [5] = assay: Antibacterial activity against Yersinia pestis Colorado 92 infected in African green monkey B6469 model assessed as bacterial burden in lung at 25 mg/kg, iv administered within 6 hrs post onset of sustained fever as 30 mins infusion for 5 days (reference value: 7.7 10^8CFU/g); format: functional, CO92
African green monkey [6] = assay: Toxicity in African green monkey B5994 model infected with Yersinia pestis Colorado 92 assessed as blood urea nitrogen level at 25 mg/kg, iv administered within 6 hrs post onset of sustained fever as 30 mins infusion for 10 days (reference value: 15 mg/dl); format: organism-based; conditions: chlorocebus sabaeus, in vivo
[7] = Toxicity in African green monkey B6291 model infected with Yersinia pestis Colorado 92 assessed as total white blood cell count at 25 mg/kg, iv administered within 6 hrs post onset of sustained fever as 30 mins infusion for 10 days (reference value: 12 10^3/microL); format: organism-based; conditions: chlorocebus aethiops, in vivo
Yersinia pestis [8] = assay: Antibacterial activity against Yersinia pestis Colorado 92 infected in African green monkey assessed as survival of monkey at 6.25 mg/kg, iv administered within 6 hrs post onset of sustained fever as 30 mins infusion for 5 days; format: functional; conditions: CO92, iv
Yersinia pestis [9] = assay: Antibacterial activity against Yersinia pestis Colorado 92 infected in African green monkey B6988 model assessed as bacterial burden in spleen at 6.25 mg/kg, iv administered within 6 hrs post onset of sustained fever as 30 mins infusion for 5 days (reference value: 1.6 10^9CFU/g); format: functional, CO92
African green monkey [10] = assay: Toxicity in African green monkey 8067 model infected with Yersinia pestis Colorado 92 assessed as blood urea nitrogen level at 25 mg/kg, iv administered within 6 hrs post onset of sustained fever as 30 mins infusion for 10 days (reference value: 13 mg/dl); format: organism-based; conditions: chlorocebus sabaeus, in vivo
Yersinia pestis [11] = assay: Antibacterial activity against Yersinia pestis Colorado 92 infected in African green monkey B6106 model assessed as bacterial burden in lung at 25 mg/kg, iv administered within 6 hrs post onset of sustained fever as 30 mins infusion for 5 days (reference value: 7.7 10^8CFU/g); format: functional, CO92
African green monkey [12] = assay: Toxicity in African green monkey assessed as effect on serum creatinine level at 25 mg/kg administered as iv infusion twice daily for 7 consecutive days measured on day 7 by LC-MS/MS analysis; format: organism-based; conditions: chlorocebus sabaeus, in vivo
African green monkey [13] = assay: Toxicity in African green monkey B6127 model infected with Yersinia pestis Colorado 92 assessed as elevation of blood urea nitrogen at 25 mg/kg, iv administered within 6 hrs post onset of sustained fever as 30 mins infusion for 10 days; format: organism-based; conditions: chlorocebus sabaeus, in vivo
Yersinia pestis [14] = assay: Antibacterial activity against Yersinia pestis Colorado 92 infected in African green monkey B6988 model assessed as bacterial burden in liver at 6.25 mg/kg, iv administered within 6 hrs post onset of sustained fever as 30 mins infusion for 5 days (reference value: 5.2 10^8CFU/g); format: functional, CO92
Yersinia pestis [15] = assay: Antibacterial activity against Yersinia pestis Colorado 92 infected in African green monkey B6889 model assessed as bacterial burden in kidney at 6.25 mg/kg, iv administered within 6 hrs post onset of sustained fever as 30 mins infusion for 5 days (reference value: 7.1 10^7CFU/g); format: functional, CO92
Yersinia pestis [16] = assay: Antibacterial activity against Yersinia pestis Colorado 92 infected in African green monkey B6127 model assessed as bacterial burden in liver at 25 mg/kg, iv administered within 6 hrs post onset of sustained fever as 30 mins infusion for 10 days (reference value: 5.2 10^8CFU/g); format: functional, CO92
[17] = Cmax in African green monkey blood at 35 mg/kg administered as iv infusion twice daily for 7 consecutive days measured on day 1 by LC-MS/MS analysis; format: ADME, organism-based; set-up: dose 35 mg/kg, route intravenous; conditions: chlorocebus aethiops
African green monkey [18] = assay: Toxicity in African green monkey B6140 model infected with Yersinia pestis Colorado 92 assessed as serum gamma glutamyl-transferase level at 25 mg/kg, iv administered within 6 hrs post onset of sustained fever as 30 mins infusion for 10 days (reference value: 55 IU/L); format: organism-based; conditions: chlorocebus sabaeus, in vivo
Yersinia pestis [19] = assay: Antibacterial activity against Yersinia pestis Colorado 92 infected in African green monkey B6873 model assessed as bacterial burden in tracheobronchial lymph nodes at 12.5 mg/kg, iv administered within 6 hrs post onset of sustained fever as 30 mins infusion for 5 days (reference value: 7.7 10^9CFU/g); format: functional, organism-based; conditions: CO92, Lymph node
Yersinia pestis [20] = assay: Antibacterial activity against Yersinia pestis Colorado 92 infected in African green monkey 8047 model assessed as bacterial burden in heart at 6.25 mg/kg, iv administered within 6 hrs post onset of sustained fever as 30 mins infusion for 10 days (reference value: 2.6 10^7CFU/g); format: functional, CO92
African green monkey [21] = assay: Toxicity in African green monkey B6428 model infected with Yersinia pestis Colorado 92 assessed as serum gamma glutamyl-transferase level at 25 mg/kg, iv administered within 6 hrs post onset of sustained fever as 30 mins infusion for 10 days (reference value: 31 IU/L); format: organism-based; conditions: chlorocebus sabaeus, in vivo
African green monkey [22] = assay: Toxicity in African green monkey 7972 model infected with Yersinia pestis Colorado 92 assessed as serum creatinine level at 25 mg/kg, iv administered within 6 hrs post onset of sustained fever as 30 mins infusion for 10 days (reference value: 0.8 mg/dl); format: organism-based; conditions: chlorocebus sabaeus, in vivo
African green monkey [23] = assay: Toxicity in African green monkey B5994 model infected with Yersinia pestis Colorado 92 assessed as serum creatinine level at 25 mg/kg, iv administered within 6 hrs post onset of sustained fever as 30 mins infusion for 10 days (reference value: 0.6 mg/dl); format: organism-based; conditions: chlorocebus sabaeus, in vivo
African green monkey [24] = assay: Toxicity in African green monkey B6127 model infected with Yersinia pestis Colorado 92 assessed as inappetence at 25 mg/kg, iv administered within 6 hrs post onset of sustained fever as 30 mins infusion for 10 days; format: organism-based; conditions: chlorocebus sabaeus, in vivo
Yersinia pestis [25] = assay: Antibacterial activity against Yersinia pestis Colorado 92 infected in African green monkey B6436 model assessed as bacterial burden in spleen at 25 mg/kg, iv administered within 6 hrs post onset of sustained fever as 30 mins infusion for 5 days (reference value: 1.6 10^9CFU/g); format: functional, organism-based; conditions: CO92
Yersinia pestis [26] = assay: Antibacterial activity against Yersinia pestis Colorado 92 infected in African green monkey B6861 model assessed as bacterial burden in tracheobronchial lymph nodes at 6.25 mg/kg, iv administered within 6 hrs post onset of sustained fever as 30 mins infusion for 5 days (reference value: 7.7 10^9CFU/g); format: functional, CO92, Lymph node

**Q.** With `CN[C@@H]1[C@@H](O)[C@@H](O[C@@H]2[C@@H](O)[C@H](O[C@H]3OC(CNCCO)=CC[C@H]3N)[C@@H](N)C[C@H]2NC(=O)[C@@H](O)CCN)OC[C@]1(C)O` [PLAZOMICIN] as the compound, how does the Activity (Yersinia pestis [1]) read?
**A.** The Activity was 31 CFU/g.

**Q.** And the Activity (Yersinia pestis [2])?
**A.** The Activity was 2.2 ×10⁹ CFU/g.

**Q.** And the Activity (Yersinia pestis [3])?
**A.** The Activity was 19 CFU/g.

**Q.** And the survival at 12.5 mg/kg (Yersinia pestis [4])?
**A.** The survival at 12.5 mg/kg was 33%.

**Q.** What about the Activity (Yersinia pestis [5]) of the same compound?
**A.** Its Activity is 21 CFU/g.

**Q.** What about the Activity (African green monkey [6]) of the same compound?
**A.** The Activity was 18 mg/dL.

**Q.** And the Activity [7]?
**A.** Its Activity is 5.9 ×10³ /uL.

**Q.** What about the survival at 6.25 mg/kg (Yersinia pestis [8]) of the same compound?
**A.** The survival at 6.25 mg/kg was 17%.

**Q.** What about the Activity (Yersinia pestis [9]) of the same compound?
**A.** The Activity was 17 CFU/g.

**Q.** And the Activity (African green monkey [10])?
**A.** Its Activity is 21 mg/dL.

**Q.** What about the Activity (Yersinia pestis [11]) of the same compound?
**A.** The Activity was 19 CFU/g.

**Q.** And the Activity (African green monkey [12])?
**A.** Its Activity is 0.55 mg/dL.

**Q.** And the Activity (African green monkey [13])?
**A.** The Activity was “Toxic”.

**Q.** What about the Activity (Yersinia pestis [14]) of the same compound?
**A.** Its Activity is 17 CFU/g.

**Q.** What about the Activity (Yersinia pestis [15]) of the same compound?
**A.** The Activity was 1.1 ×10⁶ CFU/g.

**Q.** What about the Activity (Yersinia pestis [16]) of the same compound?
**A.** The Activity was 44 CFU/g.

**Q.** What about the Cmax [17] of the same compound?
**A.** Its Cmax is 176 µg/mL.

**Q.** What about the Activity (African green monkey [18]) of the same compound?
**A.** Its Activity is 39 IU/L.

**Q.** What about the Activity (Yersinia pestis [19]) of the same compound?
**A.** Its Activity is “Below limit of detection”.

**Q.** And the Activity (Yersinia pestis [20])?
**A.** The Activity was 2 ×10⁷ CFU/g.

**Q.** What about the Activity (African green monkey [21]) of the same compound?
**A.** Its Activity is 27 IU/L.

**Q.** What about the Activity (African green monkey [22]) of the same compound?
**A.** The Activity was 0.7 mg/dL.

**Q.** And the Activity (African green monkey [23])?
**A.** The Activity was 0.5 mg/dL.

**Q.** What about the Activity (African green monkey [24]) of the same compound?
**A.** Its Activity is “Toxic”.

**Q.** What about the Activity (Yersinia pestis [25]) of the same compound?
**A.** Its Activity is “Below limit of detection”.

**Q.** What about the Activity (Yersinia pestis [26]) of the same compound?
**A.** Its Activity is 1.2 ×10⁸ CFU/g.
